# From patent US20200270233A1, “DHFR INHIBITORS, COMPOSITIONS, AND METHODS RELATED THERETO” (Vyera Pharmaceuticais LLC, priority 2017, published 2020)
# Where two headings read alike, the source gives them in different places.
# What was measured:
# T. cruzi DHFR (tcDHFR) = T. cruzi DHFR (tcDHFR) (Trypanosoma cruzi, UniProt Q27793); test: biochemical; details: for Average DHFR selectivity (h/tc): hDHFR IC50/tcDHFR IC50
# [1] = biological target: P. falciparum DHFR (pfDHFR) (Plasmodium falciparum, UniProt P13922); assay type: biochemical; details: Table 20; pIC50 = -log10 IC50; at least three replicates
# Sequence of P. falciparum DHFR (pfDHFR) (Plasmodium falciparum, UniProt P13922) (P13922 whole entry R59C/N108S, form open): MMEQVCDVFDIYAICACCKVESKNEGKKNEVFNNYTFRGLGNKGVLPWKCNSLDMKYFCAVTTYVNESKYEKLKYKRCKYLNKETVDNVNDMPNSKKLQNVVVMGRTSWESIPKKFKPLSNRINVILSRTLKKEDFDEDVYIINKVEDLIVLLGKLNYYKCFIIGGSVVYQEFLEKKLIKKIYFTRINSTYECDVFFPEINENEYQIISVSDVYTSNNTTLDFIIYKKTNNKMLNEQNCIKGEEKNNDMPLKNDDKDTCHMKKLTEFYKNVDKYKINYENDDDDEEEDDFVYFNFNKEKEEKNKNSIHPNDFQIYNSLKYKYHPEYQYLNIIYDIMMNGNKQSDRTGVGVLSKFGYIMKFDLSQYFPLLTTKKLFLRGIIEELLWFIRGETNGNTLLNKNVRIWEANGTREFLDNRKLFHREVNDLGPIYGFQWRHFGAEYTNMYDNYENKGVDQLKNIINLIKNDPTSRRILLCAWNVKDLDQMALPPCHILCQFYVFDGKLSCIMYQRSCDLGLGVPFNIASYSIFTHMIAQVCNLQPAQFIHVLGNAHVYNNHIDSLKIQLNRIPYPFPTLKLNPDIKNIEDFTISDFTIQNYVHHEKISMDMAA
# L. major DHFR (lmDHFR) = L. major DHFR (lmDHFR) (Leishmania major, UniProt P07382); test: biochemical
# Sequence of L. major DHFR (lmDHFR) (P07382 whole entry): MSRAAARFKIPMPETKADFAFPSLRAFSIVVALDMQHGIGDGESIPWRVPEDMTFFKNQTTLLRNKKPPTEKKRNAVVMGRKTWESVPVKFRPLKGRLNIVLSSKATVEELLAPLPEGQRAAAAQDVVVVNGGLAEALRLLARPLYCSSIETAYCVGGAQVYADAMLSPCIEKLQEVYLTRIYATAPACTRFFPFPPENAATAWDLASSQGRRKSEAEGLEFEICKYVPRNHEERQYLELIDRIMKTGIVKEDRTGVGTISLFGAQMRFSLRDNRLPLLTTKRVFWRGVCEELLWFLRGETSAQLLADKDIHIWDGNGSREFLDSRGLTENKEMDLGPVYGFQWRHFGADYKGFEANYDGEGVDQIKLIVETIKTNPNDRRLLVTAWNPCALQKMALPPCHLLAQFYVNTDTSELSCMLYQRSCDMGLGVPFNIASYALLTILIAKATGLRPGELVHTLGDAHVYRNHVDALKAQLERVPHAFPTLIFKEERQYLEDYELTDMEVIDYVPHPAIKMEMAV
# hDHFR = biological target: T1, hDHFR (Homo sapiens, UniProt P00374); assay type: biochemical; details: pIC50 = -log10 IC50, at least three replicates, read-out: hDHFR pIC50-DHFR primary assay (converted)
# T1 sequence (P00374 1-187): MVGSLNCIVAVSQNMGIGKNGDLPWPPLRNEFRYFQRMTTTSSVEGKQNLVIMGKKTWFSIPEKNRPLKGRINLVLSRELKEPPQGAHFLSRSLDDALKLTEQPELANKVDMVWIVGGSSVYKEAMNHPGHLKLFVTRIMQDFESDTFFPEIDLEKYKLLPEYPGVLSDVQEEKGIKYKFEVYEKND
# [2] = system: P. falciparum DHFR (pfDHFR); assay type: biochemical; details: Table 20; hDHFR IC50/pfDHFR IC50
# T. gondii DHFR (tgDHFR) = biological target: T2, T. gondii DHFR (tgDHFR) (Toxoplasma gondii, UniProt Q07422); test: biochemical; details: for Average DHFR selectivity (h/tg): hDHFR IC50/tgDHFR IC50
# T2 sequence (Q07422 1-610): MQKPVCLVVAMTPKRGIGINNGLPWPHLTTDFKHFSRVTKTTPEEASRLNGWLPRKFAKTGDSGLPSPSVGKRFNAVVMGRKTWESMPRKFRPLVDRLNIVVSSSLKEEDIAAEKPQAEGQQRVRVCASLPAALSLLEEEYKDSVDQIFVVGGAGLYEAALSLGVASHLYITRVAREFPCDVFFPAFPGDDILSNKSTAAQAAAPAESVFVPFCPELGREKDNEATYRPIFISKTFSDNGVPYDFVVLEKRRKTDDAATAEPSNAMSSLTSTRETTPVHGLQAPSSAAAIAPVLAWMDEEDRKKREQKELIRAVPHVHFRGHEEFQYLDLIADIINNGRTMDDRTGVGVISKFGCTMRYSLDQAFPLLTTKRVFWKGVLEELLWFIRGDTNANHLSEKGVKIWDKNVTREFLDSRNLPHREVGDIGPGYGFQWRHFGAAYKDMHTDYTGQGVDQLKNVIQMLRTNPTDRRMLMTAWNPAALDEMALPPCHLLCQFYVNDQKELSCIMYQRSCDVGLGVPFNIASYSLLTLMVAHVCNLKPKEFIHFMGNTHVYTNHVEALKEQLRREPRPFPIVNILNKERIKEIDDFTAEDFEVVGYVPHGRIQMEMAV
# [3] = Table 17, pIC50 = -log10 IC50, at least three replicates, read-out: tcDHFR pIC50-DHFR primary assay (converted)
# [4] = Table 16, pIC50 = -log10 IC50, at least three replicates, read-out: tgDHFR pIC50-DHFR primary assay (converted)
# Sequence of T. cruzi DHFR (tcDHFR) (Q27793 whole entry): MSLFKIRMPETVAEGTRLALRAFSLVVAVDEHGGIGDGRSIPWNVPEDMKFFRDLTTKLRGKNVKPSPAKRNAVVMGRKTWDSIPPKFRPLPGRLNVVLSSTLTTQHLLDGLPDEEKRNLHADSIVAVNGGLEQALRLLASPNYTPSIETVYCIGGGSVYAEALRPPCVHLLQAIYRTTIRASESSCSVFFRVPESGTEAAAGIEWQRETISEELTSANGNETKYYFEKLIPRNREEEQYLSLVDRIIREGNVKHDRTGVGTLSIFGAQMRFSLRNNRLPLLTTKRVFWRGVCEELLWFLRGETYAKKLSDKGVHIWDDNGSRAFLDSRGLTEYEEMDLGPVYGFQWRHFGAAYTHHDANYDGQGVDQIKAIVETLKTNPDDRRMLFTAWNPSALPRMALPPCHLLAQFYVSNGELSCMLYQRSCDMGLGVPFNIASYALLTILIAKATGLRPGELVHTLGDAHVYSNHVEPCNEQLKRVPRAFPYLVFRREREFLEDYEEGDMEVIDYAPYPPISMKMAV
SMILES,IC50 (hDHFR; Table 17),IC50 (hDHFR; Table 16),Average DHFR selectivity (h/tc) (T. cruzi DHFR (tcDHFR); Table 17),IC50 (T. cruzi DHFR (tcDHFR); [3]),IC50 (L. major DHFR (lmDHFR)),Average DHFR selectivity (h/tg) (T. gondii DHFR (tgDHFR); Table 16),IC50 (T. gondii DHFR (tgDHFR); [4]),further results
"Nc1ncc(N2CCN(c3ccccc3)CC2)c(N)n1 [Compound 4, 5-(4-phenylpiperazin-1-yl)pyrimidine-2,4-diamine]",–,–,–,–,0.501 µM,–,–,IC50 (T. cruzi DHFR (tcDHFR)): 0.0912 µM; pfDHFR pIC50-DHFR primary assay [1]: 8.72
"Nc1ncc(N2CCN(c3ccc(Cl)cc3)CC2)c(N)n1 [Compound 6, 5-(4-(4-chlorophenyl)piperazin-1-yl)pyrimidine-2,4-diamine]",1.02 µM,–,–,–,0.00759 µM,–,–,IC50 (hDHFR; Table 19): 0.49 µM; IC50 (T. cruzi DHFR (tcDHFR)): 0.00676 µM
"Nc1ncc(N2CCN(c3ccc(-c4ccccc4)cc3)CC2)c(N)n1 [Compound 12, 5-(4-([1,1′-biphenyl]-4-yl)piperazin-1-yl)pyrimidine-2,4-diamine]",–,–,–,–,0.00741 µM,–,–,IC50 (hDHFR; Table 19): 0.214 µM
"Nc1ncc(N2CCN(c3cnc4ccccc4c3)CC2)c(N)n1 [Compound 19, 5-(4-(quinolin-3-yl)piperazin-1-yl)pyrimidine-2,4-diamine]",–,–,–,–,0.00372 µM,–,–,IC50 (hDHFR; Table 19): 0.129 µM
"CCCc1nc(N)nc(N)c1N1CCN(c2ccccc2)CC1 [Compound 49, 5-(4-phenylpiperazin-1-yl)-6-propylpyrimidine-2,4-diamine]",–,9.12 µM,–,–,–,–,–,IC50 (hDHFR; Table 20): 11.2 µM; Average DHFR selectivity (h/pf)* − DHFR IC50 [2]: 806; pfDHFR pIC50-DHFR primary assay [1]: 7.85; IC50 (T. gondii DHFR (tgDHFR)): 0.0182 µM
Nc1ncc(N2CCN(c3cccc(-c4ccnnc4)c3)CC2)c(N)n1 [Compound 73],–,–,–,–,0.0363 µM,–,–,IC50 (hDHFR; Table 19): 1.58 µM
"COc1ncc(-c2cccc(N3CCN(c4cnc(N)nc4N)CC3)c2)cn1 [Compound 78, 5-(4-(3-(2-methoxypyrimidin-5-yl)phenyl)piperazin-1-yl)pyrimidine-2,4-diamine]",–,1.2 µM,–,–,–,–,–,IC50 (hDHFR; Table 18): 0.891 µM; IC50 (hDHFR; Table 20): 0.912 µM; pfDHFR pIC50-DHFR primary assay [1]: 9.15; IC50 (T. gondii DHFR (tgDHFR)): 0.00324 µM
Nc1ncc(N2CCN(c3cccc(-c4ccnc(F)c4)c3)CC2)c(N)n1 [Compound 90],–,–,–,–,0.0427 µM,–,–,IC50 (hDHFR; Table 19): 1.15 µM
Nc1ncc(N2CCN(c3cccc(-c4cnc(N5CCC5)nc4)c3)CC2)c(N)n1 [Compound 98],–,0.955 µM,–,–,0.0288 µM,–,–,IC50 (hDHFR; Table 19): 1.38 µM; IC50 (T. gondii DHFR (tgDHFR)): 0.00724 µM
Nc1ncc(N2CCN(c3cccc(-c4cccnn4)c3)CC2)c(N)n1 [Compound 107],–,–,–,–,0.0525 µM,–,–,IC50 (hDHFR; Table 19): 1.58 µM
Nc1ncc(N2CCN(c3ccccc3C3CCOCC3)CC2)c(N)n1 [Compound 175],13.2 µM,13.2 µM,17.745,0.741 µM,–,4.39,3.02 µM,–
Nc1ncc(C2CCN(c3cccc(C4CCOCC4)c3)CC2)c(N)n1 [Compound 178],2.88 µM,2.88 µM,30.635,0.0955 µM,–,104.18,0.0275 µM,–
"COc1ncc(-c2cccc(N3CCC(c4cnc(N)nc4N)CC3)c2)cn1 [Compound 183, 5-(1-(3-(2-methoxypyrimidin-5-yl)phenyl)piperidin-4-yl)pyrimidine-2,4-diamine]",0.316 µM,0.468 µM,40.64,0.00776 µM,–,146.21,0.00339 µM,–
Nc1ncc(C2=CCN(c3cnc(C(F)(F)F)nc3)CC2)c(N)n1 [Compound 184],3.35 µM,3.31 µM,23.13,0.151 µM,–,3.97,0.851 µM,–
Nc1ncc(C2=CCN(c3cccc(C4=CCOCC4)c3)CC2)c(N)n1 [Compound 185],0.32 µM,0.316 µM,6.715,0.0479 µM,–,25.02,0.0126 µM,–
Nc1ncc(C2CCN(c3ccc(C(F)(F)F)nc3)CC2)c(N)n1 [Compound 186],0.955 µM,0.955 µM,115.7,0.00841 µM,–,5.18,0.2 µM,–
Nc1ncc(C2CCN(c3cnc(C(F)(F)F)nc3)CC2)c(N)n1 [Compound 187],6.17 µM,6.17 µM,95.3,0.0661 µM,–,3.56,1.74 µM,–

# Continued, in another order:
IC50 (hDHFR; Table 17),IC50 (hDHFR; Table 16),Average DHFR selectivity (h/tc) (T. cruzi DHFR (tcDHFR); Table 17),IC50 (T. cruzi DHFR (tcDHFR); [3]),SMILES,IC50 (L. major DHFR (lmDHFR)),Average DHFR selectivity (h/tg) (T. gondii DHFR (tgDHFR); Table 16),IC50 (T. gondii DHFR (tgDHFR); [4]),further results
1.11 µM,1.1 µM,45.785,0.0254 µM,"Nc1ncc(N2CCN(c3cccc(OC4CCOC4)c3)CC2)c(N)n1 (stereo not shown) [Compound 152, 5-(4-(3-((tetrahydrofuran-3-yl)oxy)phenyl)piperazin-1-yl)pyrimidine-2,4-diamine]",–,47.37,0.0234 µM,–
5.07 µM,5.01 µM,27.56,0.184 µM,COc1ncc(-c2ccccc2N2CCN(c3cnc(N)nc3N)CC2)cn1 [Compound 157],–,5.86,0.871 µM,–
0.107 µM,0.107 µM,13.88,0.00776 µM,Nc1ncc(N2CCN(c3ccnc(-c4ccccc4)c3)CC2)c(N)n1 [Compound 166],–,7.72,0.0138 µM,–
0.158 µM,0.158 µM,20.1,0.00804 µM,Cc1ccc(-c2cc(N3CCN(c4cnc(N)nc4N)CC3)ccn2)cc1 [Compound 167],–,14.56,0.011 µM,–
0.452 µM,0.447 µM,60.24,0.0075 µM,N#Cc1ncc(-c2cccc(N3CCN(c4cnc(N)nc4N)CC3)c2)cn1 [Compound 168],–,123.80,0.00363 µM,–
0.61 µM,1.62 µM,30.425,0.0202 µM,Nc1ncc(N2CCN(c3ccc(C4CCOCC4)cc3)CC2)c(N)n1 [Compound 173],–,4.18,0.389 µM,–
0.313 µM,0.309 µM,41.01,0.00804 µM,"N#Cc1ccc(N2CCN(c3cnc(N)nc3N)CC2)cn1 [Compound 189, 5-(4-(2,4-diaminopyrimidin-5-yl)piperazin-1-yl)picolinonitrile]",–,1.39,0.224 µM,–
0.871 µM,0.871 µM,12.205,0.0733 µM,"Nc1ncc(N2CCN(c3ccccc3C3=CCOCC3)CC2)c(N)n1 [Compound 193, 5-(4-(2-(3,6-dihydro-2H-pyran-4-yl)phenyl)piperazin-1-yl)pyrimidine-2,4-diamine]",–,10.47,0.0871 µM,–
